Reference: PubChem BioAssay (NCI)
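Interpolation was linear, between the two tested concentrations surrounding the appropriate level; five concentrations were tested over 48 hours in 96-well plates. TGI is the concentration that stops growth completely.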

How the values were obtained:
Assay in all cases: DTP human tumour cell line panel, 48 h
[1] = test system: A549 NSCLC
[2] = test system: ACHN renal
[3] = test system: HCT-116 colon
[4] = test system: MDA-MB-435
[5] = test system: MOLT-4 leukemia
[6] = test system: NCI-H23 lung
[7] = test system: NCI-H522 lung
[8] = test system: OVCAR-4 ovarian
[9] = test system: SR leukemia
[10] = test system: DLD-1 colon
[11] = test system: DMS 114 small cell lung
[12] = test system: DMS 273 small cell lung
[13] = test system: HOP-18 NSCLC
[14] = test system: KM20L2 colon
[15] = test system: LXFL 529 NSCLC
[16] = test system: M19-MEL melanoma
[17] = test system: XF 498 CNS
[18] = test system: SNB-78 CNS

| SMILES | TGI [1] | TGI [2] | TGI [3] | TGI [4] | TGI [5] | TGI [6] | TGI [7] | TGI [8] | TGI [9] | TGI [10] | TGI [11] | TGI [12] | TGI [13] | TGI [14] | TGI [15] | TGI [16] | TGI [17] | TGI [18] |
| --- | --- | --- | --- | --- | --- | --- | --- | --- | --- | --- | --- | --- | --- | --- | --- | --- | --- | --- |
| N#C/C(=C\N1CCNC1=S)C(=O)c1ccc2ccccc2c1 | > 100 µM | > 100 µM | > 100 µM | > 100 µM | > 100 µM | > 100 µM | > 100 µM | > 100 µM | > 100 µM | – | – | – | – | – | – | – | – | – |
| Cc1ccc(-c2n[nH]c(=O)n2N)cc1 | > 100 µM | > 100 µM | > 100 µM | > 100 µM | > 100 µM | > 100 µM | > 100 µM | > 100 µM | > 100 µM | – | – | – | – | – | – | – | – | – |
| O=S(=O)(O)c1cc(O)c2c(O)c(N=Nc3ccc(/C=C/c4ccc(N=Nc5c(S(=O)(=O)O)cc6cc(S(=O)(=O)O)cc(O)c6c5O)cc4S(=O)(=O)O)c(S(=O)(=O)O)c3)c(S(=O)(=O)O)cc2c1 | > 100 µM | > 100 µM | > 100 µM | – | > 100 µM | > 100 µM | > 100 µM | > 100 µM | > 100 µM | > 100 µM | > 100 µM | > 100 µM | > 100 µM | > 100 µM | > 100 µM | > 100 µM | > 100 µM | – |
| c1csc(-c2cc(-c3ccsc3)c(-c3cccs3)s2)c1 | > 100 µM | > 100 µM | > 100 µM | > 100 µM | > 100 µM | > 100 µM | > 100 µM | > 100 µM | > 100 µM | – | – | – | – | – | – | – | – | – |
| CCN(CC)CCNC(=O)c1ccccc1Nc1c(Cl)cccc1Cl | 32.6 µM | 31.3 µM | 25.7 µM | – | 31.2 µM | 33.3 µM | – | 30.2 µM | 34.2 µM | 24.7 µM | 24.8 µM | 30.6 µM | – | 7.27 µM | 30.5 µM | 30.2 µM | 16.5 µM | 33.1 µM |
| CC1=CC(=O)c2cccc(O)c2C1=O | 34.7 µM | 3.17 µM | 3.49 µM | 3.28 µM | > 28.3 µM | 7.32 µM | 5.42 µM | 3.39 µM | > 21.9 µM | – | 7.89 µM | 5.01 µM | 3.07 µM | 41.6 µM | 3.06 µM | 4.05 µM | 3.2 µM | > 62.4 µM |
| COC(=O)C(=O)C(C(=O)C(=O)Nc1ccc([N+](=O)[O-])cc1C#N)c1nc2ccc([N+](=O)[O-])cc2[nH]c1=O (centres undefined) | > 100 µM | > 100 µM | > 100 µM | – | > 100 µM | – | > 100 µM | > 100 µM | > 100 µM | > 100 µM | > 100 µM | > 100 µM | > 100 µM | > 100 µM | > 100 µM | > 100 µM | – | > 100 µM |
| N=C(N)SC1c2ccccc2-c2cc([N+](=O)[O-])ccc21 (centres undefined) | 19.4 µM | 18.9 µM | 16.3 µM | 4.26 µM | 17.5 µM | 18.3 µM | 6.47 µM | 17.3 µM | 21.9 µM | – | – | – | – | – | – | – | – | – |
| Cc1ccc(-c2n[nH]c(CC#N)n2)cc1 | > 100 µM | > 100 µM | > 100 µM | > 100 µM | > 100 µM | > 100 µM | > 100 µM | > 100 µM | > 100 µM | – | – | – | – | – | – | – | – | – |
| C/C(=N\O)C(CN(C)C)C(c1ccccc1)c1c(O)c2ccccc2oc1=O (centres undefined) | > 100 µM | – | > 100 µM | – | > 100 µM | > 100 µM | > 100 µM | > 100 µM | > 100 µM | > 100 µM | > 100 µM | > 100 µM | – | > 100 µM | > 100 µM | > 100 µM | > 100 µM | > 100 µM |
| O=[N+]([O-])/C(Cl)=C(\Sc1ccccc1)C(Cl)=C(Cl)Cl | 1.53 µM | 3.07 µM | 0.278 µM | 0.453 µM | 1.58 µM | 1.87 µM | 0.802 µM | 3.65 µM | 0.734 µM | – | – | – | – | – | – | – | – | – |
| OC(CCN1CCN(CCOC(c2ccc(F)cc2)c2ccc(F)cc2)CC1)c1ccccc1 (centres undefined) | 31 µM | 25.8 µM | 26.2 µM | 38.9 µM | 29.1 µM | 31.1 µM | 28.1 µM | 39.4 µM | 33.3 µM | – | – | – | – | – | – | – | – | – |
| C/C(=N/NC(=S)Nc1cccc(Cl)c1)c1cccc(/C(C)=N\NC(=S)Nc2cccc(Cl)c2)n1 | > 24.5 µM | 6.73 µM | > 35.4 µM | > 100 µM | 8.67 µM | > 38.5 µM | > 27 µM | > 100 µM | 4.56 µM | – | – | – | – | – | – | – | – | – |
| COc1cc2c(cc1OC)[C@]1(O)C(=O)c3ccc4c(c3O[C@@H]1CO2)C[C@H](C(C)(C)O)O4 | > 100 µM | > 100 µM | > 100 µM | – | > 100 µM | > 100 µM | > 100 µM | – | – | > 100 µM | > 100 µM | > 100 µM | – | > 100 µM | > 100 µM | > 100 µM | > 100 µM | > 100 µM |
| CCN(CC)CC1CCCCN1CC(=O)N1c2ccc(Br)cc2C(=O)Nc2cccnc21 (centres undefined) | > 100 µM | > 100 µM | > 100 µM | > 100 µM | > 100 µM | > 100 µM | > 100 µM | > 100 µM | > 100 µM | – | – | – | – | – | – | – | – | – |
| N#CC1(C#N)C(c2ccccc2)NC23CCCCC2C1(C#N)C(=O)N3 (centres undefined) | > 100 µM | > 100 µM | > 100 µM | > 100 µM | > 100 µM | > 100 µM | > 100 µM | > 100 µM | > 100 µM | – | – | – | – | – | – | – | – | – |
| CCOC(=O)C1C(=O)CC(C)(O)C(C(=O)OCC)C1c1ccc(O)c(OC)c1 (centres undefined) | > 100 µM | > 100 µM | > 100 µM | > 100 µM | > 100 µM | > 100 µM | > 100 µM | > 100 µM | > 100 µM | – | – | – | – | – | – | – | – | – |
| O=C(/C=C/c1ccc(O)c(O)c1)Oc1ccccc1 | 59 µM | 41.7 µM | 34.6 µM | > 74.2 µM | > 48.4 µM | 46.2 µM | 1.95 µM | > 100 µM | 24.8 µM | – | – | – | – | – | – | – | – | – |
| CC(C)C(OC(=O)c1cc(NC(=S)c2ccccc2)ccc1Cl)C(C)C | > 94.7 µM | 65.7 µM | 40.8 µM | > 100 µM | > 64.2 µM | 35.7 µM | 29.4 µM | > 100 µM | > 60.8 µM | – | – | – | – | – | – | – | – | – |
